Consider 23 compounds from patent US7998965B2, “Glutamate aggrecanase inhibitors” (Wyeth LLC, priority 2005, dated 2011).

Assay [1] addresses T1, purified recombinant human Aggrecanase-2 (Ag2t-Phe628-Strep) (Homo sapiens, UniProt Q9UNA0).
T1 construct: the form used is denoted as Ag2t-Phe628-Strep (MW=41,737)
T1 sequence (Q9UNA0 262-628): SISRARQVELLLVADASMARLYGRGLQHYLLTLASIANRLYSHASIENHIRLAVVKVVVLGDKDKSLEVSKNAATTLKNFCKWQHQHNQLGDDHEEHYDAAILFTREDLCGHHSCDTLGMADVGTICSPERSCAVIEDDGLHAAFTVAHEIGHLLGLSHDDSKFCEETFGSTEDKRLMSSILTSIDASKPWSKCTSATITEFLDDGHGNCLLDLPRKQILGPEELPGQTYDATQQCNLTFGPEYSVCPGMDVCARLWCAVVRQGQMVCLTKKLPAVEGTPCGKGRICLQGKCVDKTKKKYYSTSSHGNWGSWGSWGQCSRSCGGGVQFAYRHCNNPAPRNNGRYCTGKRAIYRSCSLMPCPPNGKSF
The assay is described as follows: In vitro fluorescence screen for Aggrecanase-2 inhibitors. Type of assay: biochemical. Particulars: for IC50: read-out: Agg 2 IC50.

The target in assay [2] is T2, purified recombinant human Aggrecanase-1 (rAgg1) (Homo sapiens, UniProt O75173).
T2 sequence (O75173 213-837): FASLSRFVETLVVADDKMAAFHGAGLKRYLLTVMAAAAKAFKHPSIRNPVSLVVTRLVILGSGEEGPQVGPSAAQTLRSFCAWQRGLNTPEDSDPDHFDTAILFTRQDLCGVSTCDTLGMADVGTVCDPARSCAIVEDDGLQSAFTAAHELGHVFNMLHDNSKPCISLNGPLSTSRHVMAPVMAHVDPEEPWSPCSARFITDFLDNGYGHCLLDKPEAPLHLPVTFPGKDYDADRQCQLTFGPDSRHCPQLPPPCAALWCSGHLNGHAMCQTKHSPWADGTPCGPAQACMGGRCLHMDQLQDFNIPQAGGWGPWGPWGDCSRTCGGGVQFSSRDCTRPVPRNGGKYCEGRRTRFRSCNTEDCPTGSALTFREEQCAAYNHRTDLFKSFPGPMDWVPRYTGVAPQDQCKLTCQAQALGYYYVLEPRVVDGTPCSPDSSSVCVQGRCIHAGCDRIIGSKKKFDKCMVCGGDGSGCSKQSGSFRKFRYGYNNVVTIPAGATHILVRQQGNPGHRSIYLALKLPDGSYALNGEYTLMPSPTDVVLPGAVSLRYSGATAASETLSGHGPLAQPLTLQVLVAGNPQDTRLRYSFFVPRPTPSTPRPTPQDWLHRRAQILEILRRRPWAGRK
The assay is described as follows: In vitro fluorescence screen for Aggrecanase-1 inhibitors. The class given is biochemical. Details: Agg1 % at concentration: scale not given here. Particulars: for IC50: read-out: Agg1 IC50.

Like-named read-outs stand apart in the source and are kept apart here.

For the compound `CN(CCc1ccccc1)C(=O)[C@H](CCC(=O)O)NC(=O)c1ccc2c(c1)Cc1ccccc1-2` [Example 8DDDDDD, N^2-(9H-fluoren-2-ylcarbonyl)-N-methyl-N-(2-phenylethyl)-L-α-glutamine], the IC50 (as a rule, the concentration that gives 50% inhibition) in assay [1] (Table 2) was over 22000 nM; in assay [2] (Table 2) it was 2400 nM.

Turning to `CC(C)(Cc1ccc(Cl)cc1)NC(=O)[C@H](CCC(=O)O)NC(=O)c1ccc(-c2cc(F)cc(F)c2)cc1` [Example 8DDDDDDD, N-[2-(4-chlorophenyl)-1,1-dimethylethyl]-N^2-[(3′,5′-difluorobiphenyl-4-yl)carbonyl]-L-α-glutamine], the IC50 is 220 nM in assay [1] (Table 3) and under 30 nM in assay [2] (Table 3).

Consider `Cc1cccc(CNC(=O)[C@H](CCC(=O)O)NC(=O)C2c3ccccc3-c3ccccc32)c1` [Example 8EEEEE, N^2-(9H-fluoren-9-ylcarbonyl)-N^1-(3-methylbenzyl)-L-α-glutamine], for which the figures for the IC50 in assay [1] (Table 2) and in assay [2] (Table 2) were over 200000 nM and over 50000 nM, respectively.

Consider `CC(C)(Cc1ccc(Cl)cc1)NC(=O)[C@H](CCC(=O)O)NC(=O)c1ccc(-c2cccc(F)c2F)cc1` [Example 8EEEEEEE, N-[2-(4-chlorophenyl)-1,1-dimethylethyl]-N^2-[(2′,3′-difluorobiphenyl-4-yl)carbonyl]-L-α-glutamine], for which the IC50 amounted to 510 nM in assay [1] (Table 3) and 37 nM in assay [2] (Table 3).

Turning to `O=C(O)CC[C@H](NC(=O)c1ccc(-c2ccccc2)cc1)C(=O)NCCc1ccccc1` [Example 8FFF, N^2-(1,1′-biphenyl-4-ylcarbonyl)-N^1-(2-phenylethyl)-L-α-glutamine], the figures for the IC50 in assay [1] (Table 1) and in assay [2] (Table 1) were 1000 nM and 200 nM, respectively.

Regarding `CCCCN(C)C(=O)[C@H](CCC(=O)O)NC(=O)c1ccc2c(c1)Cc1ccccc1-2` [Example 8FFFFFF, N-butyl-N^2-(9H-fluoren-2-ylcarbonyl)-N-methyl-L-α-glutamine], the IC50 stood at 18100 nM in assay [1] (Table 2) and 3900 nM in assay [2] (Table 2).

For `CC(C)(Cc1ccccc1)NC(=O)[C@H](CCC(=O)O)NC(=O)c1ccc(-c2cncnc2)cc1` [Example 8FFFFFFF, N-(1,1-dimethyl-2-phenylethyl)-N^2-(4-pyrimidin-5-ylbenzoyl)-L-α-glutamine], the 50% inhibitory concentration (IC50) in assay [1] (Table 3) turned out to be 4200 nM; in assay [2] (Table 3), 200 nM.

With `CC(C)(Cc1ccccc1)NC(=O)[C@H](CCC(=O)O)NC(=O)c1ccc(-c2ccc(F)c(F)c2)cc1` [Example 8GGGGGGG, N^2-[(3′,4′-difluorobiphenyl-4-yl)carbonyl]-N-(1,1-dimethyl-2-phenylethyl)-L-α-glutamine], the IC50 in assay [1] (Table 3) turned out to be 160 nM; in assay [2] (Table 3), 60 nM.

Take `CC(C)(Cc1ccc(F)cc1)NC(=O)[C@H](CCC(=O)O)NC(=O)c1ccc(-c2ccc3c(c2)OCO3)cc1` [Example 8HHHHHH, N^2-[4-(1,3-benzodioxol-5-yl)benzoyl]-N-[2-(4-fluorophenyl)-1,1-dimethylethyl]-L-α-glutamine]: the IC50 in assay [1] (Table 2) was 46 nM; in assay [2] (Table 2), 38 nM.

Take `CC(C)(Cc1ccccc1)NC(=O)[C@H](CCC(=O)O)NC(=O)c1ccc(-c2cc(F)cc(F)c2)cc1` [Example 8HHHHHHH, N^2-[(3′,5′-difluorobiphenyl-4-yl)carbonyl]-N-(1,1-dimethyl-2-phenylethyl)-L-α-glutamine]: the IC50 in assay [1] (Table 3) was 180 nM; in assay [2] (Table 3) it was 50 nM.

As for `O=C(O)CC[C@H](NC(=O)c1ccc2c(c1)C(=O)c1ccccc1-2)C(=O)NCc1ccccc1` [Example 8IIIII, N^1-benzyl-N^2-[(9-oxo-9H-fluoren-2-yl)carbonyl]-L-α-glutamine], the IC50 is 1900 nM in assay [1] (Table 2) and 813 nM in assay [2] (Table 2).

As to `COc1ccc(CCN(C)C(=O)[C@H](CCC(=O)O)NC(=O)c2ccc3c(c2)Cc2ccccc2-3)cc1OC` [Example 8IIIIII, N-[2-(3,4-dimethoxyphenyl)ethyl]-N^2-(9H-fluoren-2-ylcarbonyl)-N-methyl-L-α-glutamine], the results for the IC50 in assay [1] (Table 2) and in assay [2] (Table 2) were 11900 nM and 2900 nM, respectively.

Turning to `CC(C)(Cc1ccc(Cl)s1)NC(=O)[C@H](CCC(=O)O)NC(=O)c1ccc(-c2ccc(F)c(F)c2)cc1` [Example 8IIIIIII, N-[2-(5-chloro-2-thienyl)-1,1-dimethylethyl]-N^2-[(3′,4′-difluorobiphenyl-4-yl)carbonyl]-L-α-glutamine], the 50% inhibitory concentration (IC50) in assay [1] (Table 3) was 42 nM; in assay [2] (Table 3), under 30 nM.

For `O=C(O)CC[C@H](NC(=O)c1ccc2c(c1)Cc1ccccc1-2)C(=O)NCc1ccccc1` [Example 8JJJJJ, N^1-benzyl-N^2-(9H-fluoren-2-ylcarbonyl)-L-α-glutamine], the IC50 in assay [1] (Table 2) turned out to be 1100 nM; in assay [2] (Table 2), 191 nM.

As to `C[C@@H](CNC(=O)[C@H](CCC(=O)O)NC(=O)c1ccc2c(c1)Cc1ccccc1-2)c1ccccc1` [Example 8JJJJJJ, N^2-(9H-fluoren-2-ylcarbonyl)-N-[(2R)-2-phenylpropyl]-L-α-glutamine], the IC50 was 943 nM in assay [1] (Table 2) and 300 nM in assay [2] (Table 2).

On to `CC(C)(Cc1ccc(Cl)s1)NC(=O)[C@H](CCC(=O)O)NC(=O)c1ccc(-c2ccccc2)cc1` [Example 8JJJJJJJ, N^2-(biphenyl-4-ylcarbonyl)-N-[2-(5-chloro-2-thienyl)-1,1-dimethylethyl]-L-α-glutamine], for which the results for the IC50 in assay [1] (Table 3) and in assay [2] (Table 3) were 53 nM and under 30 nM, respectively.

For `CC(C)(Cc1ccc(Cl)cc1)NC(=O)[C@H](CCC(=O)O)NC(=O)c1ccc(-c2cccnc2)s1` [Example 8JJJJJJJJ, N-[2-(4-chlorophenyl)-1,1-dimethylethyl]-N^2-[(5-pyridin-3-yl-2-thienyl)carbonyl]-L-α-glutamine], the IC50 is 800 to 2500 nM in assay [1] (Table 3) and under 30 nM in assay [2] (Table 3).

On to `CC(C)(Cc1ccc(Cl)cc1)NC(=O)[C@H](CCC(=O)O)NC(=O)c1cccc(-c2ccc(Cl)s2)c1` [Example 8JJJJJJJJJ, N-[2-(4-chlorophenyl)-1,1-dimethylethyl]-N^2-[3-(5-chloro-2-thienyl)benzoyl]-L-α-glutamine], for which the “Agg 2 % at concentration” value in assay [1] (Table 3, at 25000 (nM)) is on record as 10%. Also, the “Agg1 % at concentration” value in assay [2] (Table 3, at 25000 (nM)) is 25%.

For `O=C(O)CC[C@H](NC(=O)c1ccc(-c2ccccc2)cc1)C(=O)NCCc1ccc(Br)cc1` [Example 8KKK, N^2-(biphenyl-4-ylcarbonyl)-N^1-[2-(4-bromophenyl)ethyl]-L-α-glutamine], the IC50 in assay [1] (Table 1) came out at 2000 nM; in assay [2] (Table 1) it was 120 nM.

In the case of `O=C(O)CC[C@H](NC(=O)C1c2ccccc2-c2ccccc21)C(=O)NCc1ccccc1` [Example 8KKKKK, N^1-benzyl-N^2-(9H-fluoren-9-ylcarbonyl)-L-α-glutamine], the IC50 in assay [1] (Table 2) is over 22000 nM; in assay [2] (Table 2), over 50000 nM.

Consider `C[C@@H](CNC(=O)[C@H](CCC(=O)O)NC(=O)c1ccc(-c2ccccc2)cc1)c1ccccc1` [Example 8KKKKKK, N^2-(biphenyl-4-ylcarbonyl)-N-[(2R)-2-phenylpropyl]-L-α-glutamine], for which the IC50 was 1670 nM in assay [1] (Table 2) and 350 nM in assay [2] (Table 2).

Consider `CC(C)(Cc1ccc(Cl)s1)NC(=O)[C@H](CCC(=O)O)NC(=O)c1ccc(-c2ccc(F)c(Cl)c2)s1` [Example 8KKKKKKK, N^2-{[5-(3-chloro-4-fluorophenyl)-2-thienyl]carbonyl}-N-[2-(5-chloro-2-thienyl)-1,1-dimethylethyl]-L-α-glutamine], for which the IC50 in assay [1] (Table 3) and in assay [2] (Table 3) was under 30 nM in each case.

In the case of `O=C(O)CC[C@H](NC(=O)c1cccc(Oc2ccccc2)c1)C(=O)NCc1ccccc1` [Example 8LLLLL, N^1-benzyl-N^2-(3-phenoxybenzoyl)-L-α-glutamine], the values for the IC50 in assay [1] (Table 2) and in assay [2] (Table 2) were over 200000 nM and over 17000 nM, respectively.
